In patent US20190076555A1, “TUMOR TARGETING NANOAGENT FOR IMAGING AND FLUORESCENT GUIDED RESECTION OF TUMORS” (priority 2017, published 2019):
Ends that are not written are not given here.

Assays:
[1] = Absorbance spectra of free and conjugated ICG (600-900 nm); type: physicochemical; settings: PBS pH7.4
Protocol: Absorbance of free and conjugated ICG was measured within a wavelength range of 600-900 nm. Stock solution of free ICG was prepared in DMSO at a concentration of 25 mM and sample was diluted in PBS, pH7.4. FIGS. 3A-3J illustrate absorbance spectra of free and conjugated ICG.

[2] = tested on: U87 MG glioma cells; experiment: Competition with binding of NIA to glioma cells by flow cytometry; parameters: species or system human; settings: 5 μM NIA (100%) competed with 125 μM competitor
Protocol: FIG. 11C illustrates flow cytometry histogram for CTX (not fluorescent) competing with binding of NIA (content 5 μM CTXtot) at various concentrations of competing CTX. The following combinations were tested: PBS no ligand (solid line), NIA+125 μM CTX (dashed line), NIA+50 μM CTX (dotdashed line), NIA+5 μM (longdashed line), and NIA 5 μM (dash-twodotted line). […] The abscissa intercept indicates the maximum level of fluorescence decrease due to competition at extrapolated infinite concentrations of CTX.
The saturation curves in the insets were calculated as average fluorescence intensities as function of overall CTX, (CTXtot), concentrations. […] Each molecule of NIA contains on average 7.75 groups of CTX. […] Since the inhibitors are not fluorescence labeled, the inhibition would be indicated by the reduction of MFI if NIA is the competed ligand.

CC1(C)C(/C=C/C=C/C=C/C=C2\N(CCCCS(=O)(=O)O)c3ccc4ccccc4c3C2(C)C)=[N+](CCCCS(=O)(=O)[O-])c2ccc3ccccc3c21 [free ICG, Indocyanine Green]
maximum absorbance wavelength ([1]; high concentration 100 μM ICG): 695 nm | maximum absorbance wavelength ([1]; lower concentration 3 μM ICG): 780 nm

P/LLL(40%): polymalic acid with tri-leucine (40%), not fluorescence labelled competitor (Leu-Leu-Leu; not fully specified)
decrease in mean fluorescence intensity of NIA [2]: 41-46%
